The results in this text go back to paper PMC11217349, “Development of Nurr1 agonists from amodiaquine by scaffold hopping and fragment growing” (Communications Chemistry, 2024).

A word on the half-life: it is how long it takes for the measured level to halve.

For one series, the target named is T1, PPARγ (Homo sapiens, UniProt P37231).
T1 construct: chimeric receptors composed of the Gal4-DBD and the hinge region and LBD; expressed in transfected cells; host or cells: HEK293T
The experiment in a line: Gal4-hybrid selectivity assay PPARγ. The class given is cell-based. To be noted: 3 µM; reference agonist = 100%. The protocol: Nurr1 modulation was determined in a Gal4 hybrid reporter gene assay in HEK293T cells (German Collection of Microorganisms and Cell Culture GmbH, DSMZ) using pFR-Luc (Stratagene, La Jolla, CA, USA; reporter), pRL-SV40 (Promega, Madison, WI, USA; internal control) and pFA-CMV-hNurr1-LBD[14], coding for the hinge region and ligand binding domain of the canonical isoform of human Nurr1. […] After 24 h, the medium was changed to Opti-MEM without supplements, and cells were transiently transfected using Lipofectamine LTX reagent (Invitrogen, Carlsbad, CA, USA) according to the manufacturer’s protocol. Five hours after transfection, cells were incubated with the test compounds in Opti-MEM supplemented with penicillin (100 U/mL), streptomycin (100 μg/mL), and 0.1% DMSO for 16 h before luciferase activity was measured using the Dual-Glo Luciferase Assay System (Promega) according to the manufacturer’s protocol on a Tecan Spark luminometer (Tecan Deutschland GmbH, Crailsheim, Germany). Firefly luminescence was divided by Renilla luminescence and multiplied by 1000 resulting in relative light units (RLU) to normalize for transfection efficiency and cell growth. Fold activation was obtained by dividing the mean RLU of the test compound by the mean RLU of the untreated control. All samples were tested in at least three biologically independent experiments in duplicates. […]

A further series deals with T2, VDR (Homo sapiens, UniProt P11473).
T2 construct: chimeric receptors composed of the Gal4-DBD and the hinge region and LBD; expressed in transfected cells; host or cells: HEK293T
T2 sequence (P11473 127-423 limits assumed): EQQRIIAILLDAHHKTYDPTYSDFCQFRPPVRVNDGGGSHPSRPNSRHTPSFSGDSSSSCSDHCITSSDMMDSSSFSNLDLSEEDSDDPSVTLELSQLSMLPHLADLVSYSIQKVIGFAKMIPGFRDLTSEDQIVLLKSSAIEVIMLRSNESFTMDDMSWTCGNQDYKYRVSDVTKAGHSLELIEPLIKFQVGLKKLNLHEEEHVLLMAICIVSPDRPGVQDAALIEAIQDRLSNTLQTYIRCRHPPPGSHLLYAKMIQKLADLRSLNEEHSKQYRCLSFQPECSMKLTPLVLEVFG
Put plainly: Gal4-hybrid selectivity assay VDR. The class given is cell-based. To be noted: 3 µM; reference agonist = 100%.

The nature of series [1]: Parallel artificial membrane permeability assay (PAMPA). Format: in vitro ADME. The settings on record: 500 µM donor, pH 7.4, 18 h. The protocol: Passive lipid membrane diffusion of test compounds was determined using Merck Millipore MultiScreen Filter Plates (0.45 μm pore diameter, hydrophobic PVDF). The filter inserts were coated with 1% L-α-phosphatidylcholine (Fluka Analytical) in n-dodecan. The test compounds were then added to the donor compartment at a final concentration of 500 µM in a phosphate buffer pH 7.4 containing 5% DMSO with a total volume of 150 µL. The acceptor compartment was filled with 300 µL PBS containing 5% DMSO. Additionally, three equilibrium samples were prepared by directly adding the donor solution to the acceptor compartment for the calculation of log Pe values. The filter plates were incubated for 18 h before the test compound concentrations in the acceptor compartments and in the equilibrium, samples were determined by UV absorbance at 320 nm (34), 360 nm (36), 310 nm (41), or 315 nm (42) with external calibration in a 96 well quartz plate on a SpectraMax M2e microplate reader (Molecular Devices). logPe values were calculated according to the formula published by Sugano and colleagues.
On the technique in general: In PAMPA a lipid-coated filter parts donor from acceptor wells.

A further series is described as follows: Microsomal stability. Format: in vitro ADME, rat. The settings on record: for AUC x10^5 (LC-MS peak area of 36 and its demethylated metabolites): incubation of 36 with rat liver microsomes, listed as 36-N(CH3)2. The protocol: To determine microsomal stability, test compounds (10 μM) were incubated in 100 mM potassium phosphate buffer at pH 7.4 (total volume of 100 µL) containing 0.5 mg/mL male rat liver microsomes (Sprague-Dawley, no. M9066, Merck KGaA, Darmstadt) and 1 mM NADPH for 0, 15, 30, or 60 min. At the end of the incubation time, microsomal activity was terminated by the addition of 500 µL MeCN and subsequent centrifugation at 1700 g for 5 min. A reaction mixture containing heat-inactivated microsomes (95 °C, 10 min) was prepared as a control for each compound. 5 µL supernatant of each sample was analyzed and the remaining concentrations of the respective test compounds at each time point were determined by LC-MS/MS on an API-3200-QTrap (Sciex) with an Agilent Technologies 1100 series setup including a binary pump (G1311A), a degasser (G1322A), and a Shimadzu SIL 20 A HT autosampler under the control of Analyst 1.6 (Sciex). A XBridge BEH C18 (3.5 µm, 150 mm×3 mm, Waters, protected with a 0.5 µm frit) stationary phase was used in combination with a gradient method starting with 0.1% formic acid in water (A) and MeCN (B) as mobile phase (A:B = 80:20) for 6 min going to A: B = 50:50 after 8 min. 5 µL of supernatant diluted in mobile phase starting conditions was loaded onto the column, separated at a flow rate of 400 µL/min, and detected and quantified per Area of MRM (multiple reaction monitoring) with the following transitions: m/z 381.797/145.000 (34); m/z 395.125/158.200 (36); m/z 409.822/131.000 (41); m/z 407.838/171.100 (42).
On the technique in general: Microsomes from liver hold many membrane-bound enzymes, among them those of drug oxidation.

“And” between values parts separate entries of the source, which are not always exact repeats. Identical values can stand only once.

T1 sequence (P37231 238-503 limits assumed): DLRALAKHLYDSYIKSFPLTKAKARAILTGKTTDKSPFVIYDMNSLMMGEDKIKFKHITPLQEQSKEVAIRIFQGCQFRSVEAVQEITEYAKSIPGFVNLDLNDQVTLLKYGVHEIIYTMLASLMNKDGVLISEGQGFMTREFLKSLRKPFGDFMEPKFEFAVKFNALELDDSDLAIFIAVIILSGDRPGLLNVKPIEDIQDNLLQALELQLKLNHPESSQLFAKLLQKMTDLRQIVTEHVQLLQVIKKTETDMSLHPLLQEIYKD

As to `Cc1nc2c(Cl)cccn2c1NC(=O)c1ccc(-c2ccc(N(C)C)cc2)o1` [Compound 36, N-(8-Chloro-2-methylimidazo[1,2-a]pyridin-3-yl)-5-(4-(dimethylamino)phenyl)furan-2-carboxamide], at PPARγ, the “% rel. act. PPARγ” value is 10.373% and 9.960% and 8.281%. Further, on VDR, the “% rel. act. VDR” value was 4.840% and 6.730% and 2.930%. Besides, the “logPe (PAMPA)” value in series [1] was -5.647 and -5.642 and -5.6601 and -5.6738. Moreover, in “Microsomal stability”, the “metabolism by rat liver microsomes (route)” value was “almost exclusively degraded by demethylation of the dimethylamino motif”. Further, the “AUC x10^5 (LC-MS peak area of 36 and its demethylated metabolites)” value in “Microsomal stability” (time 0 min) was 7.35 x10^5 and 8.16 x10^5 and 6.56 x10^5 and 7.96 x10^5; in “Microsomal stability” (time 15 min) it was 1.47 x10^5 and 1.4 x10^5 and 1.5 x10^5 and 1.61 x10^5. Besides, the half-life at 10 µM in “Microsomal stability” (male, Sprague-Dawley, pH 7.4, rat liver microsomes, 10 µM, LCMS) worked out at 6.3 ± 0.3 min.
